Source: BindingDB's records for doi:10.7270/Q2B27SQ0 (Nmmlsc, 2008)
Counter-ions that a name gives are not always drawn.

Molecular target: Apoptosis regulator Bcl-2 (Homo sapiens, UniProt P10415)
Assay: PubChem AID 950
Details: not given

Apoptosis regulator Bcl-2, sequence (P10415 whole entry): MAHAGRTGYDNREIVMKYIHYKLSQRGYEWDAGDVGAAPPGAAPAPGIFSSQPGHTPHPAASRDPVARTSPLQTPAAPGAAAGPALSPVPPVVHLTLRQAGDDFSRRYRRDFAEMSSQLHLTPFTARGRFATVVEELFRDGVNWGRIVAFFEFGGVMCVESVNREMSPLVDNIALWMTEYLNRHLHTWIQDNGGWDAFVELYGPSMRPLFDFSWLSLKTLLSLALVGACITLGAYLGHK

| SMILES | EC50 [µM] |
| --- | --- |
| CN1CCc2cccc3c2[C@@H]1Cc1ccc(O)c(O)c1-3 | 16.1 |
| CCC(/C=C1\Sc2ccc(OC)cc2N1CCO)=C\c1sc2ccc(OC)cc2[n+]1CCO | 16.1 |
| Cc1nc2ncccn2c1-c1csc(Nc2ccc(O)cc2)n1 | 0.67 |
| c1ccc(-c2nc(N3CCOCC3)[s+]n2-c2ccccc2)cc1 | 13.8 |
| O=C(NCc1ccccc1)c1ccc2nc(-c3ccco3)c(-c3ccco3)nc2c1 [2,3-bis(furan-2-yl)-N-(phenylmethyl)quinoxaline-6-carboxamide] | 7.44 |
| COc1ccc(CC(=O)Nc2ccc(-c3nc4cc(C)ccc4o3)c(O)c2)cc1OC [2-(3,4-dimethoxyphenyl)-N-[(4Z)-3-keto-4-(5-methyl-3H-1,3-benzoxazol-2-ylidene)cyclohexa-1,5-dien-1-yl]acetamide] | 10 |
| C=CCn1c(SCC(=O)Nc2ccc3c(c2)OCO3)nnc1-c1cc(Br)ccc1O [2-[[(5Z)-4-allyl-5-(3-bromo-6-keto-cyclohexa-2,4-dien-1-ylidene)-1H-1,2,4-triazol-3-yl]thio]-N-(1,3-benzodioxol-5-yl)acetamide] | 15.8 |
| Cc1cc(N)ccc1N1CCCC1 [3-methyl-4-(1-pyrrolidinyl)aniline;hydrochloride] | 13.7 |
| COc1cc(/C=C2\CC/C(=C\c3cc(OC)c(O)c(OC)c3)C2=O)cc(OC)c1O [(2E,5E)-2,5-bis[(4-hydroxy-3,5-dimethoxyphenyl)methylidene]cyclopentan-1-one] | 5.13 |
| CN(C)[C@@H]1C(=O)C(C(=O)NCN2CCCC2)C(=O)[C@@]2(O)C(=O)C3C(=O)c4c(O)cccc4[C@@](C)(O)C3CC12 (stereo partly drawn) [(2Z,4S,6S,12aS)-4-(dimethylamino)-6,10,11,12a-tetrahydroxy-2-[hydroxy-(1-pyrrolidinylmethylamino)methylidene]-6-methyl-4,4a,5,5a-tetrahydrotetracene-1,3,12-trione] | 23.7 |
| COc1cc(CN=Nc2nn3cnnc3c3ccccc23)ccc1O [(4E)-2-methoxy-4-[[2-([1,2,4]triazolo[3,4-a]phthalazin-6-yl)hydrazinyl]methylidene]cyclohexa-2,5-dien-1-one] | 8.47 |
| O=C1/C(=C\c2ccc(-c3ccccc3Cl)o2)SC(=S)N1CC1CCCO1 (configuration not stated) [(5E)-5-[[5-(2-chlorophenyl)furan-2-yl]methylidene]-3-(oxolan-2-ylmethyl)-2-sulfanylidene-1,3-thiazolidin-4-one] | 2.33 |
| CN1CCc2cccc3c2[C@H]1Cc1ccc(O)c(O)c1-3 [APOMORPHINE HYDROCHLORIDE] | 42.3 |
| CCOC(=O)C1CCN(C(=O)Nc2ccc3nc(-c4ccco4)c(-c4ccco4)nc3c2)CC1 [MLS000113285] | 6.65 |
| Clc1ccc2c(N=NCc3ccccc3Br)ccnc2c1 [MLS000336087] | 9.15 |
| O=[N+]([O-])c1ccc(N=NCc2ccc(O)c(O)c2O)c(S(=O)(=O)N2CCOCC2)c1 [MLS000336720] | 4.66 |
| COc1ccc2c3c(cccc13)N(C)N=C2C [MLS000554700] | 2.01 |
| OCCN1CCN(CCCc2c3c(cc4c2CCC4)CCC3)CC1 [MLS000698424] | 17.9 |
| COc1cccc2c(SCC(=O)NN=Cc3ccc(O)cc3O)cc(C)nc12 [N'-[(E)-(2-hydroxy-4-oxo-1-cyclohexa-2,5-dienylidene)methyl]-2-[(8-methoxy-2-methyl-4-quinolinyl)thio]acetohydrazide] | 24.1 |
| CC(=O)c1ccc(NC(=O)c2ccc3nc(-c4ccco4)c(-c4ccco4)nc3c2)cc1 [N-(4-acetylphenyl)-2,3-di-2-furyl-6-quinoxalinecarboxamide] | 8.54 |

Same assay, conditions: inactive by the depositor's call

| SMILES | EC50 [µM] |
| --- | --- |
| CN1CCN(C2=C(Cl)C(=O)C(c3cnc(N4CCCCC4)s3)=C(Cl)C2=O)CC1 | 0.16 |
| CCOC(=O)c1ccc(Nc2nc(C(=O)OCC)nc3ccccc23)cc1 | 1.51 |
| CCN1C(=O)/C(=C/C=C2\C=CN(CC)c3ccccc32)SC1=S | 35.3 |
| Cc1ccc(-c2ccc(/C=C/C(=O)c3ccccc3)o2)cc1 | 8.47 |
| COc1ccc(-n2c(=O)c3ccccc3c3ccccc3c2=O)c(OC)c1 | 13.4 |
| N#Cc1cc(-c2ccccc2)nn1-c1ccccc1 | 39.6 |
| CN(C)c1ncc(C2=C(Cl)C(=O)C(N3CCCC3)=C(Cl)C2=O)s1 | 0.21 |
| c1ccc(C2=Nc3cccc4cccc(c34)N2)cc1 | 26.5 |
| Cc1ccc(C)c(/C=C/C(=O)c2ccccc(=O)c2O)c1 | 19.4 |
| O=C(NC1=C(Nc2ccc(Cl)cc2)C(=O)c2ccccc2C1=O)c1ccccc1 | 17.9 |
| O=C(Nc1ccc2nc(-c3ccco3)c(-c3ccco3)nc2c1)N1CCN(c2ccccn2)CC1 | 8.86 |
| O=C(c1ccccc1)c1ccc2nc(-c3ccco3)c(-c3ccco3)nc2c1 | 16 |
| CCOc1ccccc1CNc1ccc(O)cc1 | 3.63 |
| Cc1ccc(C(=O)/C=C/c2ccc(-c3ccc(C)cc3)o2)cc1 [1-p-Tolyl-3-(5-p-tolyl-furan-2-yl)-propenone] | 3.08 |
| COc1ccc2nc(-c3ccco3)c(-c3ccco3)nc2c1 [2,3-di-2-furyl-6-methoxyquinoxaline] | 14.4 |
| O=C(NCc1ccccn1)c1ccc2nc(-c3ccco3)c(-c3ccco3)nc2c1 [2,3-di-2-furyl-N-(pyridin-2-ylmethyl)quinoxaline-6-carboxamide] | 14.1 |
| O=C(Nc1ccccc1)c1ccc2nc(-c3ccco3)c(-c3ccco3)nc2c1 [2,3-di-2-furyl-N-phenyl-6-quinoxalinecarboxamide] | 36.5 |
| c1coc(C2=Nc3cccc4cccc(c34)N2)c1 [2-(2-furanyl)-1H-perimidine] | 9.76 |
| O=C(/C=C/c1ccccc1Cl)c1ccccc(=O)c1O [3-[(E)-3-(2-chlorophenyl)prop-2-enoyl]-2-oxidanyl-cyclohepta-2,4,6-trien-1-one] | 15 |
| Cc1cc(-c2csc(N)n2)c(C)n1C [4-(1,2,5-trimethyl-3-pyrrolyl)-2-thiazolamine] | 46.3 |
| Cc1nc2ncccn2c1-c1csc(Nc2ccccc2)n1 [4-(2-methyl-3-imidazo[1,2-a]pyrimidinyl)-N-phenyl-2-thiazolamine] | 8.93 |
| CNc1ccc(Br)cc(C(=O)/C=C/c2cccc(OC)c2)c1=O [4-bromo-2-[3-(3-methoxyphenyl)acryloyl]-7-(methylamino)-2,4,6-cycloheptatrien-1-one] | 55 |
| Cc1cc(C)nc(SCc2cc(=O)c(OC(=O)c3ccc(Cl)c([N+](=O)[O-])c3)co2)n1 [4-chloro-3-nitrobenzoic acid [6-[[(4,6-dimethyl-2-pyrimidinyl)thio]methyl]-4-oxo-3-pyranyl] ester] | 8.45 |
| CN(C)c1ccc(C=C2C(=O)NC(=O)NC2=O)cc1[N+](=O)[O-] [5-[[4-(dimethylamino)-3-nitrophenyl]methylidene]-1,3-diazinane-2,4,6-trione] | 16.4 |

| SMILES | EC50 [µM] |
| --- | --- |
| CCc1ccc(/C=C/C(=O)c2cc(Br)ccc(=O)c2O)cc1 [5-bromo-3-[(E)-3-(4-ethylphenyl)-1-oxoprop-2-enyl]-2-hydroxy-1-cyclohepta-2,4,6-trienone] | 76.4 |
| COc1ccc(C2=Nn3c(nnc3-c3ccco3)SC2)cc1OC [6-(3,4-Dimethoxy-phenyl)-3-furan-2-yl-7H-[1,2,4]triazolo[3,4-b][1,3,4]thiadiazine] | 1.21 |
| O=C1C(=Cc2ccco2)NC(=S)N1c1ccccc1 [(5E)-5-(furan-2-ylmethylidene)-3-phenyl-2-sulfanylideneimidazolidin-4-one] | 27.2 |
| Cc1ccc(-c2ccc(/C=C3\SC(N4CCOCC4)=NC3=O)o2)cc1 [(5Z)-5-[[5-(4-methylphenyl)-2-furanyl]methylidene]-2-(4-morpholinyl)-4-thiazolone] | 44.6 |
| O=C(/C=C\c1ccc(-c2ccccc2)o1)c1ccccc1 [(Z)-1-phenyl-3-(5-phenyl-2-furanyl)-2-propen-1-one] | 34.9 |
| COc1cc(C2Nc3cccc4cccc(c34)N2)ccc1OC(C)=O [Acetic acid 4-(2,3-dihydro-1H-perimidin-2-yl)-2-methoxy-phenyl ester] | 11.4 |
| COC(=O)CSc1ncnc2c1sc1nc(-c3ccco3)c3c(c12)CC(C)(C)OC3 [MLS000039339] | 27.6 |
| C/C(=C\c1ccco1)C1Nc2cccc3cccc(c23)N1 [MLS000055728] | 14.2 |
| O=C1c2ccccc2-c2onc3ccc(NCc4ccco4)c1c23 [MLS000080234] | 37.8 |
| Cc1cc2n(c1)CCn1c(C)ccc1-2 [MLS000104384] | 15.9 |
| Clc1nc(NCc2cccnc2)nc(N2CCOCC2)n1 [MLS000121154] | 24.9 |
| Cc1ccc(NC2=C(NC(=O)c3ccccc3)C(=O)c3ccccc3C2=O)cc1Cl [MLS000392290] | 4.38 |
| COCCCn1c(N)c(C(=O)Nc2sc3c(c2C(=O)OC)CCCC3)c2nc3ccccc3nc21 [MLS000595323] | 1.95 |
| COc1cc2nc(=S)[nH]c(NCCc3ccc(S(N)(=O)=O)cc3)c2cc1OC [MLS000674601] | 0.54 |
| Fc1ccc(C2=Nc3cccc4cccc(c34)N2)cc1 [MLS000687139] | 9.27 |
| COc1ccc(/C=C/C(=O)c2cc(Br)ccc(=O)c2O)cc1 [MLS000702099] | 33.6 |
| CCOC(=O)c1c(O)nc2ccc(Cl)c3c2c1-c1ccccc1C3=O [MLS000704595] | 7.65 |
| c1ccc(Nc2cccc(Nc3ccccc3)n2)cc1 [N,N'-diphenyl-2,6-pyridinediamine] | 2.79 |
| O=C(Nc1ccc(N2CCOCC2)cc1)Nc1ccc2nc(-c3ccco3)c(-c3ccco3)nc2c1 [N-(2,3-di-2-furyl-6-quinoxalinyl)-N'-[4-(4-morpholinyl)phenyl]urea] | 8.89 |
| Clc1nss/c1=N\c1ccc(Br)cc1 [N-(4-bromophenyl)-4-chloro-5-dithiazolimine] | 49.8 |
| COc1ccc(CCNC(=O)c2ccc3nc(-c4ccco4)c(-c4ccco4)nc3c2)cc1OC [N-[2-(3,4-dimethoxyphenyl)ethyl]-2,3-di-2-furylquinoxaline-6-carboxamide] | 13.6 |
| O=C(NC1=C(NC2CCS(=O)(=O)C2)C(=O)c2ccccc2C1=O)c1ccccc1 (configuration not stated) [N-[3-[(1,1-dioxo-3-thiolanyl)amino]-1,4-dioxo-2-naphthalenyl]benzamide] | 19.7 |
| Cc1cccc(OCC(=O)NCC(=O)NN=Cc2cc(Br)ccc2OCc2ccccc2)c1 [N-[(5-bromanyl-2-phenylmethoxy-phenyl)methylideneamino]-2-[2-(3-methylphenoxy)ethanoylamino]ethanamide] | 5.73 |
